Assay results from patent US20220372067A1, “3.ALPHA.-HYDROXY-17.BETA.-AMIDE NEUROACTIVE STEROIDS AND COMPOSITIONS THEREOF” (SAGE THERAPEUTICS, INC., priority 2018, published 2022).

What follows are compounds tested against GABAA receptor (TBPS binding site), rat brain cortical membranes (assay: [35S]-TBPS binding assay, rat brain cortical membranes in the presence of 5 mM GABA). Conditions: inhibition of 3 nM [35S]-TBPS binding.
Experimental: [^35S]-t-Butylbicyclophosphorothionate (TBPS) binding assays using rat brain cortical membranes in the presence of 5 mM GABA has been described (Gee et al, J. Pharmacol. Exp. Ther. 1987, 241, 346-353; Hawkinson et al, Mol. Pharmacol. 1994, 46, 977-985; Lewin, A. H et al., Mol. Pharmacol. 1989, 35, 189-194).
Briefly, cortices are rapidly removed following decapitation of carbon dioxide-anesthetized Sprague-Dawley rats (200-250 g). The cortices are homogenized in 10 volumes of ice-cold 0.32 M sucrose using a glass/teflon homogenizer and centrifuged at 1500×g for 10 min at 4° C. The resultant supernatants are centrifuged at 10,000×g for 20 min at 4° C. to obtain the P2 pellets. The P2 pellets are resuspended in 200 mM NaCl/50 mM Na—K phosphate pH 7.4 buffer and centrifuged at 10,000×g for 10 min at 4° C. This washing procedure is repeated twice and the pellets are resuspended in 10 volumes of buffer. Aliquots ([…]) of the membrane suspensions are incubated with 3 nM [^35S]-TBPS and […] aliquots of test drug dissolved in dimethyl sulfoxide (DMSO) (final 0.5%) in the presence of 5 mM GABA. The incubation is brought to a final volume of 1.0 mL with buffer. Nonspecific binding is determined in the presence of […] and ranged from 15 to 25%. Following a 90 min incubation at room temp, the assays are terminated by filtration through glass fiber filters (Schleicher and Schuell No. 32) using a cell harvester (Brandel) and rinsed three times with ice-cold buffer. Filter bound radioactivity is measured by liquid scintillation spectrometry. Non-linear curve fitting of the overall data for each drug averaged for each concentration is done using Prism (GraphPad). […] The concentration of test compound producing 50% inhibition (IC50) of specific binding and the maximal extent of inhibition (Imax) are determined for the individual experiments with the same model used for the overall data and then the means±SEM.s of the individual experiments are calculated.
Various compounds are or can be screened to determine their potential as modulators of [^35S]-TBPS binding in vitro. These assays are or can be performed in accordance with the above
In the case of CCOC[C@@]1(O)CC[C@H]2[C@H](CC[C@@H]3[C@@H]2CC[C@]2(C)[C@@H](C(=O)Nc4cc(C#N)nn4C)CC[C@@H]32)C1 [Example 37], the IC50 is reported as under 0.1 µM.
With Cc1nc2ccccn2c1NC(=O)[C@H]1CC[C@H]2[C@@H]3CC[C@@H]4C[C@](C)(O)CC[C@@H]4[C@H]3CC[C@]12C [Example 6, (3R,5R,8R,9R,10S,13S,14S,17S)-3-hydroxy-3,13-dimethyl-N-(2-methylimidazo[1,2-a]pyridin-3-yl)hexadecahydro-1H-cyclopenta[a]phenanthrene-17-carboxamide] the IC50 was 0.1 to 1 µM.
Work on CCOC[C@@]1(O)CC[C@H]2[C@H](CC[C@@H]3[C@@H]2CC[C@]2(C)[C@@H](C(=O)Nc4cc(C)nn4C)CC[C@@H]32)C1 [Example 30] yielded an IC50 of under 0.1 µM.
Work on CC[C@@]1(O)CC[C@@]2(C)[C@H](CC[C@@H]3[C@@H]2CC[C@]2(C)[C@@H](C(=O)Nc4nc(C)ccc4Cl)CC[C@@H]32)C1 [Example 15, (3R,5R,8R,9S,10S,13S,14S,17S)-N-(3-chloro-6-methylpyridin-2-yl)-3-ethyl-3-hydroxy-10,13-dimethylhexadecahydro-1H-cyclopenta[a]phenanthrene-17-carboxamide] yielded an IC50 of 0.1 to 1 µM.
COC[C@@]1(O)CC[C@H]2[C@H](CC[C@@H]3[C@@H]2CC[C@]2(C)[C@@H](C(=O)Nc4ccc(C)nc4)CC[C@@H]32)C1 [Example 40] was tested, and the IC50 was under 0.1 µM.
Compound CCOC[C@@]1(O)CC[C@H]2[C@H](CC[C@@H]3[C@@H]2CC[C@]2(C)[C@@H](C(=O)Nc4ncccc4C(F)(F)F)CC[C@@H]32)C1 [Example 3, (3R,5R,8R,9R,10S,13S,14S,17S)-3-(ethoxymethyl)-3-hydroxy-13-methyl-N-(3-(trifluoromethyl)pyridin-2-yl)hexadecahydro-1H-cyclopenta[a]phenanthrene-17-carboxamide] has an IC50 of 0.1 to 1 µM.
COC[C@@]1(O)CC[C@H]2[C@H](CC[C@@H]3[C@@H]2CC[C@]2(C)[C@@H](C(=O)Nc4cccnc4C)CC[C@@H]32)C1 [Example 51] was tested, and the IC50 was under 0.1 µM.
CCOC[C@@]1(O)CC[C@H]2[C@H](CC[C@@H]3[C@@H]2CC[C@]2(C)[C@@H](C(=O)Nc4ncccc4C)CC[C@@H]32)C1 [Example 2, (3R,5R,8R,9R,10S,13S,14S,17S)-3-(ethoxymethyl)-3-hydroxy-13-methyl-N-(3-methylpyridin-2-yl)hexadecahydro-1H-cyclopenta[a]phenanthrene-17-carboxamide] showed an IC50 of over 1 µM.
COC[C@@]1(O)CC[C@H]2[C@H](CC[C@@H]3[C@@H]2CC[C@]2(C)[C@@H](C(=O)Nc4cccc(N5CCCC5=O)n4)CC[C@@H]32)C1 [Example 50] showed an IC50 of under 0.1 µM.
CCOC[C@@]1(O)CC[C@H]2[C@H](CC[C@@H]3[C@@H]2CC[C@]2(C)[C@@H](C(=O)Nc4ccnc(C)n4)CC[C@@H]32)C1 [Example 63] was tested, and the IC50 was under 0.1 µM.
For CCOC[C@@]1(O)CC[C@@]2(CC)[C@H](CC[C@H]3[C@@H]4CC[C@H](C(=O)Nc5cc(C#N)n(C)n5)[C@@]4(C)CC[C@@H]32)C1 [Example 36], the IC50 was under 0.1 µM.
COC[C@@]1(O)CC[C@H]2[C@H](CC[C@@H]3[C@@H]2CC[C@]2(C)[C@@H](C(=O)Nc4ccc(C#N)nc4Cl)CC[C@@H]32)C1 [Example 42] was tested, and the IC50 was under 0.1 µM.
With COC[C@@]1(O)CC[C@H]2[C@@H](CC[C@@H]3[C@@H]2CC[C@]2(C)[C@@H](C(=O)Nc4cccc(C)n4)CC[C@@H]32)C1 [Example 7, (3R,5S,8R,9R,10S,13S,14S,17S)-3-hydroxy-3-(methoxymethyl)-13-methyl-N-(6-methylpyridin-2-yl)hexadecahydro-1H-cyclopenta[a]phenanthrene-17-carboxamide] the IC50 was under 0.1 µM.
With COC[C@@]1(O)CC[C@H]2[C@H](CC[C@@H]3[C@@H]2CC[C@]2(C)[C@@H](C(=O)Nc4ccc(-n5nccc5C)nc4C)CC[C@@H]32)C1 [Example 47] the IC50 was under 0.1 µM.
With COC[C@@]1(O)CC[C@H]2[C@H](CC[C@@H]3[C@@H]2CC[C@]2(C)[C@@H](C(=O)Nc4ccc(C)nc4Cl)CC[C@@H]32)C1 [Example 43] the IC50 was under 0.1 µM.
With CCOC[C@@]1(O)CC[C@H]2[C@H](CC[C@@H]3[C@@H]2CC[C@]2(C)[C@@H](C(=O)Nc4ccc(C#N)nc4C)CC[C@@H]32)C1 [Example 27] the IC50 was under 0.1 µM.
Work on CCOC[C@@]1(O)CC[C@H]2[C@H](CC[C@@H]3[C@@H]2CC[C@]2(C)[C@@H](C(=O)Nc4c(C#N)cnn4C)CC[C@@H]32)C1 [Example 57] yielded an IC50 of over 1 µM.
CCOC[C@@]1(O)CC[C@H]2[C@H](CC[C@@H]3[C@@H]2CC[C@]2(C)[C@@H](C(=O)Nc4ccc(C#N)nn4)CC[C@@H]32)C1 [Example 29] gave an IC50 of under 0.1 µM.
CCOC[C@@]1(O)CC[C@H]2[C@H](CC[C@@H]3[C@@H]2CC[C@]2(C)[C@@H](C(=O)Nc4cncc(C#N)n4)CC[C@@H]32)C1 [Example 58] showed an IC50 of under 0.1 µM.
With COC[C@@]1(O)CC[C@H]2[C@H](CC[C@@H]3[C@@H]2CC[C@]2(C)[C@@H](C(=O)Nc4cccc(-n5ccc(C)n5)n4)CC[C@@H]32)C1 [Example 45] the IC50 was under 0.1 µM.
With CCC[C@@]1(O)CC[C@H]2[C@H](CC[C@@H]3[C@@H]2CC[C@]2(C)[C@@H](C(=O)Nc4ccc(C#N)cn4)CC[C@@H]32)C1 [Example 67, (3R,5R,8R,9R,10S,13S,14S,17S)-N-(5-cyanopyridin-2-yl)-3-hydroxy-13-methyl-3-propylhexadecahydro-1H-cyclopenta[a]phenanthrene-17-carboxamide] the IC50 was under 0.1 µM.
CCOC[C@@]1(O)CC[C@H]2[C@H](CC[C@@H]3[C@@H]2CC[C@]2(C)[C@@H](C(=O)Nc4ncc(C)cc4C)CC[C@@H]32)C1 [Example 62] gave an IC50 of 0.1 to 1 µM.
CCOC[C@@]1(O)CC[C@@]2(C)[C@H](CC[C@@H]3[C@@H]2CC[C@]2(C)[C@@H](C(=O)Nc4ccc(C#N)cn4)CC[C@@H]32)C1 [Example 31] showed an IC50 of under 0.1 µM.
With CCOC[C@@]1(O)CC[C@H]2[C@H](CC[C@@H]3[C@@H]2CC[C@]2(C)[C@@H](C(=O)Nc4ncc(C#N)cc4Cl)CC[C@@H]32)C1 [Example 26] the IC50 was under 0.1 µM.
CCOC[C@@]1(O)CC[C@H]2[C@H](CC[C@@H]3[C@@H]2CC[C@]2(C)[C@@H](C(=O)Nc4cncc(C)n4)CC[C@@H]32)C1 [Example 24] gave an IC50 of under 0.1 µM.
Work on CCOC[C@@]1(O)CC[C@H]2[C@H](CC[C@@H]3[C@@H]2CC[C@]2(C)[C@@H](C(=O)Nc4cccnc4)CC[C@@H]32)C1 [Example 21] yielded an IC50 of 0.1 to 1 µM.
CCC[C@@]1(O)CC[C@@]2(C)[C@H](CC[C@@H]3[C@@H]2CC[C@]2(C)[C@@H](C(=O)Nc4ccc(C#N)cn4)CC[C@@H]32)C1 [Example 68, (3R,5R,8R,9S,10S,13S,14S,17S)-N-(5-cyanopyridin-2-yl)-3-hydroxy-10, 13-dimethyl-3-propylhexadecahydro-1H-cyclopenta[a]phenanthrene-17-carboxamide] showed an IC50 of under 0.1 µM.
In the case of CCOC[C@@]1(O)CC[C@@]2(CC)[C@H](CC[C@H]3[C@@H]4CC[C@H](C(=O)Nc5cnc(C#N)cn5)[C@@]4(C)CC[C@@H]32)C1 [Example 11, (3R,5R,8S,9S,10S,13S,14S,17S)-N-(5-cyanopyrazin-2-yl)-3-(ethoxymethyl)-10-ethyl-3-hydroxy-13-methylhexadecahydro-1H-cyclopenta[a]phenanthrene-17-carboxamide], the IC50 is reported as under 0.1 µM.
Work on CCOC[C@@]1(O)CC[C@@]2(CC)[C@H](CC[C@H]3[C@@H]4CC[C@H](C(=O)Nc5ccc(C#N)cn5)[C@@]4(C)CC[C@@H]32)C1 [Example 33] yielded an IC50 of under 0.1 µM.
For COC[C@@]1(O)CC[C@H]2[C@H](CC[C@@H]3[C@@H]2CC[C@]2(C)[C@@H](C(=O)Nc4ccc(N5CCCC5=O)nc4C)CC[C@@H]32)C1 [Example 49], the IC50 was under 0.1 µM.
CC[C@@]1(O)CC[C@H]2[C@H](CC[C@@H]3[C@@H]2CC[C@]2(C)[C@@H](C(=O)Nc4nc(C)ccc4Cl)CC[C@@H]32)C1 [Example 16, (3R,5R,8R,9R,10S,13S,14S,17S)-N-(3-chloro-6-methylpyridin-2-yl)-3-ethyl-3-hydroxy-13-methylhexadecahydro-1H-cyclopenta[a]phenanthrene-17-carboxamide] showed an IC50 of 0.1 to 1 µM.
In the case of CCOC[C@@]1(O)CC[C@H]2[C@H](CC[C@@H]3[C@@H]2CC[C@]2(C)[C@@H](C(=O)Nc4cnc(C#N)cn4)CC[C@@H]32)C1 [Example 28], the IC50 is reported as under 0.1 µM.
